Test results reported in patent publication US6762170B1, “2-(purin-9-yl)-tetrahydrofuran-3,4-diol derivatives” (SmithKlineBeecham Corporation, priority 1998, dated 2004).
Structures can show the parent of a compound that is named as a salt.

Tests used:
Assay type in all cases: cell-based
Adenosine 1 receptor = molecular target: T1, Adenosine 1 receptor (Homo sapiens, UniProt P30542); experiment: Agonist activity against adenosine 1 receptor subtype (CHO cells, forskolin-enhanced cAMP, SPAP reporter); details: EC50 ratio to NECA; transfected CHO cells, forskolin-enhanced cAMP reflected by SPAP
T1 construct: expressed in transfected cells; host or cells: Chinese hamster ovary (CHO) cells, co-transfected with a CRE-SPAP reporter
T1 sequence (P30542 1-326): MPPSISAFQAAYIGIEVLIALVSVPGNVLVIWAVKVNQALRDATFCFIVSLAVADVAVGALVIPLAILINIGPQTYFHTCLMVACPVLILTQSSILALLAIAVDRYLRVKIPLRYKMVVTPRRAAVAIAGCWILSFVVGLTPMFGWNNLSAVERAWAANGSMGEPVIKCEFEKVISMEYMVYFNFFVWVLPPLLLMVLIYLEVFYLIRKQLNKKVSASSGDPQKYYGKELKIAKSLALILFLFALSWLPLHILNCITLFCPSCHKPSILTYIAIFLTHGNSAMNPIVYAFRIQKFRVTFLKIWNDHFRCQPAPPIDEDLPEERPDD
Protocol: (§1) (1) Agonist Activity Against Adenosine 2a, Adenosine 1 and Adenosine 3 Receptor Subtypes.
(§2) Agonist selectivity of compounds against other human adenosine receptors is determined using Chinese hamster ovary (CHO) cells transfected with the gene for the relevant human adenosine receptor following a method based on that of Castanon and Spevak, 1994. The CHO cells are also transfected with cyclic AMP response elements promoting the gene for secreted placental alkaline phosphatase (SPAP) (Wood, 1995). The effect of test compounds may be determined by their effects on basal levels of cAMP (A2a) or on forskolin-enhanced cAMP (A1 and A3) as reflected by changes in levels of SPAP. EC50 values for compounds may then be determined as a ratio to that of the non-selective agonist N-ethyl carboxamide adenosine (NECA).
(§3) Values given in the Table are EC50 values as a ratio of that of NECA.

Adenosine 2a receptor = molecular target: T2, Adenosine 2a receptor (Homo sapiens, UniProt P29274); experiment: Agonist activity against adenosine 2a receptor subtype (CHO cells, cAMP response element/SPAP reporter); details: EC50 ratio to NECA; transfected CHO cells, basal cAMP reflected by SPAP
T2 construct: expressed in transfected cells; host or cells: Chinese hamster ovary (CHO) cells, co-transfected with a CRE-SPAP reporter
T2 sequence (P29274 whole entry): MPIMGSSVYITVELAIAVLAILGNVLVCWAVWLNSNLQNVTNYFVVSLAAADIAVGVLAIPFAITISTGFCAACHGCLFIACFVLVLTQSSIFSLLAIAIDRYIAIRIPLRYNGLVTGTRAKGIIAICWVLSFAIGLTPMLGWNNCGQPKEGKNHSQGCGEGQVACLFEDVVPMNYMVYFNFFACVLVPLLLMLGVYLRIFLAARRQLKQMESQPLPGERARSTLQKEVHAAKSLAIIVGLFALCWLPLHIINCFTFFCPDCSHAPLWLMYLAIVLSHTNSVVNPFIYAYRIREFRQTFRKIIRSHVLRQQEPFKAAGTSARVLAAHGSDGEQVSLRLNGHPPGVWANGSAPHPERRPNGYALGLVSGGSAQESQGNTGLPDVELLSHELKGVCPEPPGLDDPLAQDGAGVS
Protocol: as §1, §2, §3

Adenosine 3 receptor = molecular target: T3, Adenosine 3 receptor (Homo sapiens, UniProt P0DMS8); experiment: Agonist activity against adenosine 3 receptor subtype (CHO cells, forskolin-enhanced cAMP, SPAP reporter); details: EC50 ratio to NECA; transfected CHO cells, forskolin-enhanced cAMP reflected by SPAP
T3 construct: expressed in transfected cells; host or cells: Chinese hamster ovary (CHO) cells, co-transfected with a CRE-SPAP reporter
T3 sequence (P0DMS8 1-318): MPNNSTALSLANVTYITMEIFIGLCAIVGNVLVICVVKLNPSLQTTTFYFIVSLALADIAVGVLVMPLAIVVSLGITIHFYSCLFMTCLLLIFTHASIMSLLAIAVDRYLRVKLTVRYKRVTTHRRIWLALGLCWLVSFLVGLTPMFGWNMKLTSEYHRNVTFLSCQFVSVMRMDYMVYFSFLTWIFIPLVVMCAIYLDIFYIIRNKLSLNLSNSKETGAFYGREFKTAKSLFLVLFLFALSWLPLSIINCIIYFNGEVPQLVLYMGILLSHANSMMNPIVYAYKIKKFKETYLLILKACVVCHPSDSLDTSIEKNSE
Protocol: as §1, §2, §3

CCc1cc(C2OC(n3cnc4c(NC5CCN(C(C)=O)CC5)nc(NC5CCC(N)CC5)nc43)C(O)C2O)on1 (stereo not drawn) [Example 29, 1-(4-{2-(trans-4-Amino-cyclohexylamino)-9-[5S-(3-ethyl-isoxazol-5-yl)-3R,4S-dihydroxy-tetrahydro-furan-2R-yl]-9H-purin-6-ylamino}-piperidin-1-yl)-ethanone diformate]
A1 (EC50 values as a ratio of that of NECA) (Adenosine 1 receptor): 27.24 | A2a (EC50 values as a ratio of that of NECA) (Adenosine 2a receptor): 5.03 | A3 (EC50 values as a ratio of that of NECA) (Adenosine 3 receptor): >298

CCc1cc([C@@H]2O[C@H](n3cnc4c(NC5CCSCC5)nc(NCCc5ccccn5)nc43)[C@@H](O)[C@H]2O)on1.O=CO.O=CO [Example 30, (2R,3R,4S,5S)-2-(3Ethyl-isoxazol-5-yl)-5-[2-(2-pyridin-2-yl-ethylamino)-6-(tetrahydro-thiopyran-4-ylamino)-purin-9-yl]-tetrahydro-furan-3,4-diol diformate]
A1 (EC50 values as a ratio of that of NECA) (Adenosine 1 receptor): 108.8 | A2a (EC50 values as a ratio of that of NECA) (Adenosine 2a receptor): 4.58 | A3 (EC50 values as a ratio of that of NECA) (Adenosine 3 receptor): >257

CCc1cc(C2OC(n3cnc4c(NC5CCS(=O)(=O)CC5)nc(NCCN5CCCCC5)nc43)C(O)C2O)on1.O=CO.O=CO [Example 31, (2R,3R,4S,5S)-2-[6-(1,1-Dioxo-hexahydro-1λ6-thiopyran-4-ylamino)-2-(2-piperidin-1-yl-ethylamino)-purin-9-yl]-5-(3-ethyl-isoxazol-5-yl)-tetrahydro-furan-3,4-diol diformate]
A1 (EC50 values as a ratio of that of NECA) (Adenosine 1 receptor): 577.2 | A2a (EC50 values as a ratio of that of NECA) (Adenosine 2a receptor): 10.59 | A3 (EC50 values as a ratio of that of NECA) (Adenosine 3 receptor): >310

CCc1cc(C2OC(n3cnc4c(NC5CCS(=O)(=O)CC5)nc(NC5CCC(N)CC5)nc43)C(O)C2O)on1 [Example 32, (2R,3R,4S,5S)-2-[2-trans-4-Amino-cyclohexylamino)-6-(1-dioxo-hexahydro-1λ6-thiopyran-4-ylamino)-purin-9-yl]-5-(3-ethyl-isoxazol-5-yl)-tetrahydro-furan-3,4-diol diformate]
A1 (EC50 values as a ratio of that of NECA) (Adenosine 1 receptor): 31.75 | A2a (EC50 values as a ratio of that of NECA) (Adenosine 2a receptor): 3.79 | A3 (EC50 values as a ratio of that of NECA) (Adenosine 3 receptor): >176

CCc1cc(C2OC(n3cnc4c(NC(CC)CC)nc(NC(CO)Cc5ccccc5)nc43)C(O)C2O)on1 [Example 35, (2S,3S,4R,5R)-2-(3-Ethyl-4-isoxazol-5-yl)-5-[6-(1-ethyl-propylamino)-2-(1S-hydroxymethyl-2-phenyl-ethylamino)-purin-9-yl]-tetrahydro-furan-3,4-diol formate]
A1 (EC50 values as a ratio of that of NECA) (Adenosine 1 receptor): 89.16 | A2a (EC50 values as a ratio of that of NECA) (Adenosine 2a receptor): 2.53 | A3 (EC50 values as a ratio of that of NECA) (Adenosine 3 receptor): >223

CCc1cc(C2OC(n3cnc4c(NC(CC)CC)nc(NC5CCNC5)nc43)C(O)C2O)on1 [Example 36, (2S,3S,4R,5R)-2-(3-Ethyl-isoxazol-5-yl)-5-[6-(1(-ethyl-propylamino)-2-(pyrrolidin-3R-ylamino)-purin-9-yl]-tetrahydro-furan-3,4-diol diformate]
A1 (EC50 values as a ratio of that of NECA) (Adenosine 1 receptor): 68.32 | A2a (EC50 values as a ratio of that of NECA) (Adenosine 2a receptor): 4.7 | A3 (EC50 values as a ratio of that of NECA) (Adenosine 3 receptor): >207

CCc1cc(C2OC(n3cnc4c(NC(CC)CC)nc(NCCc5ccccn5)nc43)C(O)C2O)on1 [Example 37, (2S,3S,4R,5R)-2-(3-Ethyl-isoxazol-5-yl)-5-[61-ethyl-propylamino)-2-(2-pyridin-2-yl-ethylamino)-purin-9-yl]-tetrahydro-furan-3,4-diol diformate]
A1 (EC50 values as a ratio of that of NECA) (Adenosine 1 receptor): 136.56 | A2a (EC50 values as a ratio of that of NECA) (Adenosine 2a receptor): 2.65 | A3 (EC50 values as a ratio of that of NECA) (Adenosine 3 receptor): >207

CCc1cc(C2OC(n3cnc4c(NC(CC)CC)nc(NCCN5CCOCC5)nc43)C(O)C2O)on1.O=CO.O=CO [Example 38, (2S,3S,4R,5R)-2-(3Ethyl-isoxazol-5-yl)-5-[6(1-ethyl-propylamino)-2-(2-morpholin-4-yl-ethylamino)-purin-9-yl]-tetrahydro-furan-3,4-diol diformate]
A1 (EC50 values as a ratio of that of NECA) (Adenosine 1 receptor): 44.1 | A2a (EC50 values as a ratio of that of NECA) (Adenosine 2a receptor): 5.29 | A3 (EC50 values as a ratio of that of NECA) (Adenosine 3 receptor): >737

CCc1cc(C2OC(n3cnc4c(NC(CC)CC)nc(NC5CCC(N)CC5)nc43)C(O)C2O)on1.O=CO.O=CO [Example 39, (2R,3R,4S,5S)-2-[2(trans-4-Amino-cyclohexylamino)-6(1-ethyl-propylamino)-purin-9-yl]-5-(3-ethyl-isoxazol-5-yl)-tetrahydro-furan-3,4-diol diformate]
A1 (EC50 values as a ratio of that of NECA) (Adenosine 1 receptor): 86.8 | A2a (EC50 values as a ratio of that of NECA) (Adenosine 2a receptor): 2.12 | A3 (EC50 values as a ratio of that of NECA) (Adenosine 3 receptor): >85

CCc1cc(C2OC(n3cnc4c(NC(CC)CC)nc(NCCNC(=N)N)nc43)C(O)C2O)on1 (stereo not drawn) [Example 40, N-{2-[9-[5S-(3-Ethyl-isoxazol-5-yl)-3R,4S-dihydroxy-tetrahydro-furan-2R-yl]6-(1-ethyl-propylamino)-9H-purin-2-ylamino]-ethyl}-guanidine diformate]
A1 (EC50 values as a ratio of that of NECA) (Adenosine 1 receptor): 70.53 | A2a (EC50 values as a ratio of that of NECA) (Adenosine 2a receptor): 3.38 | A3 (EC50 values as a ratio of that of NECA) (Adenosine 3 receptor): >88

CCc1cc([C@H]2O[C@@H](n3cnc4c(NCCC(C)(C)C)nc(NCCN5CCCCC5)nc43)[C@H](O)[C@@H]2O)on1.O=CO.O=CO [Example 41, (2R,3R,4S,5S)-2-[6-(3,3-Dimethyl-butylamino)-2-(2-piperidin-1-yl-ethylamino)-purin-9-yl]-5-(3-ethyl-isoxazol-5-yl)-tetrahydro-furan-3,4-diol diformate]
A1 (EC50 values as a ratio of that of NECA) (Adenosine 1 receptor): 2907.96 | A2a (EC50 values as a ratio of that of NECA) (Adenosine 2a receptor): 27.39 | A3 (EC50 values as a ratio of that of NECA) (Adenosine 3 receptor): >395

CCc1cc(C2OC(n3cnc4c(NCCC(C)(C)C)nc(NCCN5CCOCC5)nc43)C(O)C2O)on1 [Example 42, (2R,3R,4S,5S)-2-[6-(3,3-Dimethyl-butylamino)-2-(2-morpholin-4-ethylamino)-purin-9-yl]-5-(3-ethyl-isoxazol-5-yl)-tetrahydro-furan-3,4-diol diformate]]
A1 (EC50 values as a ratio of that of NECA) (Adenosine 1 receptor): 1369.08 | A2a (EC50 values as a ratio of that of NECA) (Adenosine 2a receptor): 41.06 | A3 (EC50 values as a ratio of that of NECA) (Adenosine 3 receptor): >395

CCc1cc(C2OC(n3cnc4c(NCc5ccccc5)nc(NCCc5cn(C)cn5)nc43)C(O)C2O)on1 [Example 43, (2R,3R,4S,5S)-2-{6-Benzylamino-2-[2-(1-methyl-1H-imidazol-1-yl)-ethylamino]-purin-9-yl}-5-(3-ethyl-isoxazol-5-yl)-tetrahydro-furan-3,4-diol diformate]
A1 (EC50 values as a ratio of that of NECA) (Adenosine 1 receptor): 672.4 | A2a (EC50 values as a ratio of that of NECA) (Adenosine 2a receptor): 3.53 | A3 (EC50 values as a ratio of that of NECA) (Adenosine 3 receptor): >335

CCc1cc(C2OC(n3cnc4c(NCc5ccccc5)nc(NCCN5CCCCC5)nc43)C(O)C2O)on1.O=CO.O=CO [Example 44, (2R,3R,4S,5S)-2-[6-Benzylamino-2-(2-piperidin-1-yl-ethylamino)-purin-9-yl]-5-(3-ethyl-isoxazol-5-yl)-tetrahydro-furan-3,4-diol diformate]
A1 (EC50 values as a ratio of that of NECA) (Adenosine 1 receptor): 725.4 | A2a (EC50 values as a ratio of that of NECA) (Adenosine 2a receptor): 10.3 | A3 (EC50 values as a ratio of that of NECA) (Adenosine 3 receptor): >221

CCc1cc(C2OC(n3cnc4c(NC(CO)Cc5ccccc5)nc(NCCN5CCCCC5)nc43)C(O)C2O)on1 [Example 45, (2S,3S,4R,5R)-2-(3-Ethyl-isoxazol-5-yl)-5-[6-(1S-hydroxymethyl-2-phenyl-ethylamino)-2-(2-piperidin-1-yl-ethylamino)-purin-9-yl]-tetrahydro-furan-3,4-diol diformate]
A1 (EC50 values as a ratio of that of NECA) (Adenosine 1 receptor): 54.04 | A2a (EC50 values as a ratio of that of NECA) (Adenosine 2a receptor): 1.93 | A3 (EC50 values as a ratio of that of NECA) (Adenosine 3 receptor): >189
